“Also recorded” adds a separate entry of the source. Peptide text beside a SMILES is read from it. * marks the point of attachment. Cbz = O=C(OCc1ccccc1)*; CH2F = FC*
Tests used:
A549 cells [1] = test: Cell death of A549 cells exposed to D-cysteine (passage p1, caspase 3 Western blotting, zVAD-fmk, CRISPR screen selection); type: cell-based, human
Procedure: (§1) A549 lung tumor cells (FIG. 5A) or BEAS-2B normal bronchial epithelial cells (FIG. 5B) were cultured in complete media (CM) in the absence or presence of 500 μM D-cysteine (D-Cys). Cell numbers were analyzed after 72 h and after splitting of cells (p1). Cell numbers are expressed as % of cells cultured in the absence of D-cysteine. **** P<0.0001.
(§2) We therefore decided to test whether the D-cysteine-mediated inhibition of OCR could affect cell growth in a regular normal medium complemented with fetal calf serum. Most culture media used for cell culture contain 300 μM L-cystine. […] Importantly, some cancer cell lines, including HeLa cells (FIG. 4A), the MPM cell line H2052/484 (FIG. 4B), and osteosarcoma cell line 143B (not shown), were insensitive both in 2D cultures or in colony formation assays. The decrease in numbers of cells seen after 72 h exposure to D-cysteine was due to decreased cell proliferation. […] Importantly, in contrast to the results with cancer cells, normal human bronchial epithelial BEAS-2B cells were resistant to D-cysteine exposure even at very high concentration (FIG. 5B).
For these experiments a pooled lentiviral CRISPR library (Addgene) targeting 19114 human genes was used to infect A549 cells, stably expressing the Cas9 nuclease. Cells were then cultured in the presence of 0.5 mM D-cysteine, a concentration sufficient to induce A549 cell death. After 2-3 weeks, the surviving clones were recovered and the sgRNAs were amplified by PCR and sequenced using next-generation sequencing (NGS) to identify the targeted genes (FIG. 6).

A549 cells [2] = test: Proliferation of A549 cells (cell counts after 72 h / 3 days); type: cell-based, human; conditions: 500 μM added to culture medium, cells counted after 3 days (72 h)
Procedure: FIG. 1. Effect of L- and D-Cysteine, each tested at 500 microM, on the proliferation of A549 cells. Cells were counted 3 days after addition of L- or D-Cysteine. (CM=culture medium)
as §1, §2

[3] = test system: mitochondrial respiration; test: Oxygen consumption rate of cells in poor medium with single amino acids; type: cell-based; conditions: cells in poor medium containing only glucose, each amino acid tested separately; data not shown
[4] = test system: cell lines derived from malignant pleural mesothelioma (MPM); test: Colony formation, MPM cell lines; type: cell-based; conditions: colony formation assays or spheroids
Procedure: (§3) FIGS. 4A-4D: D-cysteine affects tumor cell viability. Colony formation assays in presence or absence 0.1 mM D-cysteine (D-Cys) for 2 weeks. FIG. 4A: Lung tumor cell lines+cervix cell line (HeLa). FIG. 4B: MPM cell lines. FIG. 4C: A549. FIG. 4D: LuCa62 spheroid formation in presence or absence of 0.1 mM, 0.2 mM or 0.5 mM D-cysteine for 17 days.
as §2

[5] = test system: MDA-MB-231 triple-negative breast cancer cells; test: Colony formation / proliferation, MDA-MB-231; type: cell-based; conditions: colony formation assays or spheroids
Procedure: as §2

[6] = test system: LuCa62 lung adenocarcinoma cells; test: Colony formation / spheroid formation assay, LuCa62; type: cell-based, human; conditions: colony formation (0.1 mM, 2 weeks) or spheroids (0.1, 0.2 or 0.5 mM, 17 days)
Procedure: as §3, §2

[7] = D-cysteine quantification in blood (serum) of mice after gavage; type: in vivo; conditions: 500 mg/kg by gavage, no DAAO inhibitor, data not shown
Procedure: As described below, we have initiated experiments in which we administer D-cysteine (500 mg/kg) by gavage, and using the technique described in^37, we have measured the levels of D-cysteine in serum. […] We reasoned that the enzyme D amino oxidase (DAAO), which is known to oxidize D-amino acids and which in mice is highly expressed in the kidney, could explain the rapid clearance of D-cysteine from the blood. We therefore co-administered D-cysteine with an inhibitor of DAAO (JHU 1377). Using this protocol, we achieved higher levels of D-cysteine in the blood (Table 2) and indeed levels higher than that needed to repress tumor cell growth in vitro. Thus far we have only assessed the pharmacokinetics of D-cysteine during the first 6 h following administration. In future experiments we plan to repeat the analysis over longer time periods.
DAAO inhibitor JHU 1377 (30 mg/kg) was injected into mice, followed 2 h later by D-cysteine gavage (500 mg/kg). Blood was collected after 2, 4, and 6 h and levels of L- and D-cysteine were quantified in the serum.

A549 cells [8] = test: Oxidized (GSSG) and total (GSH) glutathione levels in A549 cells; type: cell-based, human; conditions: 500 μM, 72 h
Procedure: (§4) A549 cells were cultured for 72 h in complete medium (CM) with or without 500 μM D-cysteine (D-Cys) and different cellular characteristics were analyzed. FIG. 8A: Oxidized (GSSG) and total (GSH) glutathione levels. FIG. 8B: Mitochondrial ROS production by MitoSOX staining. FIG. 8C: Lipid peroxidation by Bodipy C11 staining. MFI=Mean of Fluorescence Intensity (Flow cytometry). * P<0.05.
(§5) We first tested whether D-cysteine could trigger ferroptosis. Ferroptosis is a type of death due to iron-mediated ROS production and lipid peroxidation. In most cases, it is triggered by decreased glutathione levels.

A549 cells [9] = test: Mitochondrial respiration (OCR) of A549 cells; type: cell-based, human; conditions: 500 μM, 72 h
Procedure: FIG. 9: D-cysteine impairs mitochondrial respiration of lung tumor cells. A549 cells were cultured for 72 h in complete media (CM) supplemented or not with 500 μM D-cysteine (D-Cys), and oxygen consumption rate (OCR) was quantified both before (basal respiration) and after sequential addition of oligomycin and FCCP (maximal respiration).

A549 cells [10] = test: Lipid peroxidation by Bodipy C11 staining; type: cell-based, human; conditions: 500 μM, 72 h
Procedure: as §4, §5

A549 cells [11] = test: Proteome analysis (LC-MS/MS with TMT) of A549 cells exposed to D-cysteine; type: cell-based, human; conditions: 500 μM, 72 h, FDR<0.01
Procedure: To understand how D-cysteine modifies protein expression, A549 cells were grown in the presence of D-cysteine for 3 days and total cellular proteins were compared to control cells grown in parallel in the presence of L-cysteine. For these experiments liquid chromatography-tandem mass spectrometry (LC-MS/MS) coupled with tandem mass tagging (TMT) was employed, a procedure which enables simultaneous protein identification and relative quantification of two different samples in the same proteomics experiment.
Proteome analysis of A549 cells cultured in the absence or presence of 500 μM D-cysteine for 72 h. […] FC=Fold change.

A549 cells [12] = test: Iron concentration in A549 cells by ICP-MS; type: cell-based, human; conditions: 72 h
Procedure: FIG. 3. Iron concentration in A549 cells cultured in the presence or absence of D-Cysteine for 72 h. Iron was measured using ICP-MS (Inductively coupled plasma mass spectrometry).
Moreover, D-cysteine could also trigger ferritinophagy, which is a process triggered in cells lacking iron. The most likely explanation is that D-cysteine, which accumulates in cells since it is not consumed during protein synthesis or other pathways, can react with iron through its thiol group, thus acting as an iron chelator. […] As a consequence, intracellular iron is depleted, and cells trigger ferritinophagy releasing ferric iron, thus leading to ROS production, lipid peroxidation and cell death.

A549 lung cancer cells = test: Proliferation of A549 cells with D-cysteine and 3-MST inhibitor HMPSNE; type: cell-based, human; conditions: D-cysteine 100 μM and/or HMPSNE
Procedure: (§6) A549 lung tumor cells (FIG. 10A) or MDA-MB-231 breast tumor cells (FIG. 10B) were cultured in complete media (CM) in the absence or presence of 100 μM D-cysteine (D-Cys), with (grey bars) or without (black bars) HMPSNE, a cell-membrane permeable inhibitor of 3-MST. Cell numbers were counted after 72 hours. * P<0.05, ** P<0.01, *** P<0.001, **** P<0.0001.
(§7) Furthermore, as mentioned above, it exerts toxic effects via iron chelation. Therefore, to survive D cysteine, cells need to increase its catabolism. There are two main pathways for cysteine catabolism: one is via its enzymatic breakdown to produce hydrogen sulfur and organic intermediates that will serve as carbon sources, and the second is via oxidative metabolism through cysteine dioxygenase 48. Inhibition of cysteine catabolism can be obtained with inhibitors of the key enzymes participating in this pathway. We have used a commercially available inhibitor of 3-MST, HMPSNE 49 to inhibit the enzyme in A549 lung cancer cells and in MDA-MB-231 breast cancer cells in the presence or absence of D cysteine.

[13] = test system: MDA-MB-231 breast cancer cells; test: Proliferation of MDA-MB-231 cells with D-cysteine and 3-MST inhibitor HMPSNE; type: cell-based; conditions: D-cysteine 100 μM and/or HMPSNE
Procedure: as §6, §7

[14] = test system: BEAS-2B normal bronchial epithelial cells; test: Proliferation of BEAS-2B normal cells; type: cell-based, human; conditions: 500 μM; 72 h and after splitting (p1); even at very high concentration
Procedure: as §1, §2

HeLa cells = test: 2D culture / colony formation, HeLa; type: cell-based; conditions: 2D cultures or colony formation assays
Procedure: as §3, §2

[15] = rat; 500 mg/kg daily by gavage for one month; cited from earlier work
A375 melanoma cells = test: Colony formation / proliferation, A375; type: cell-based; conditions: colony formation assays or spheroids
Procedure: as §2

[16] = test system: BZR tumorigenic bronchial epithelial cells; test: Colony formation / proliferation, BZR; type: cell-based; conditions: colony formation assays or spheroids
Procedure: as §3, §2

A549 cells [17] = test: Mitochondrial ROS production by MitoSOX staining; type: cell-based, human; conditions: 500 μM, 72 h
Procedure: as §4, §5

[18] = test system: osteosarcoma cell line 143B; test: 2D culture / colony formation, 143B; type: cell-based; conditions: 2D cultures or colony formation assays; not shown
Procedure: as §2

[19] = test system: H1299 lung adenocarcinoma cells; test: Colony formation / proliferation, H1299; type: cell-based; conditions: colony formation assays or spheroids
Procedure: as §3, §2

MPM cell line H2052/484 = test: 2D culture / colony formation, H2052/484; type: cell-based; conditions: 2D cultures or colony formation assays
Procedure: as §3, §2

COC(=O)C[C@H](NC(=O)[C@H](C)NC(=O)[C@@H](NC(=O)OCc1ccccc1)C(C)C)C(=O)CF [zVAD-fmk, reference compound] (Cbz-Val-Ala-Asp(OMe)-CH2F)
protection from D-cysteine-induced cell death by added pan-caspase inhibitor (A549 cells [1]; added to D-cysteine-exposed cells, data not shown): did not protect the cells

N[C@@H](CS)C(=O)O [L-cysteine, reference compound]
proliferation of A549 cells (A549 cells [2]): had no effect | proliferation of A549 cells (A549 cells [2]; listed as L form of cysteine): no adverse effect | inhibitory effect on oxygen consumption rate (OCR) [3]: responsible for the observed effect

N[C@H](CS)C(=O)O [D-cysteine]
antiproliferative effect, MPM-derived cell lines [4]: antiproliferative effect | antiproliferative effect, MDA-MB-231 [5]: antiproliferative effect | antiproliferative effect, LuCa62 [6]: antiproliferative effect | initial level of D-cysteine in the blood [7]: around 200 μM | concentration at 2 h ([7]; mouse, serum, oral, read-out: level of D-cysteine in the blood within the first 2 h): 5 µM | glutathione levels (A549 cells [8]): did not induce a drop in glutathione | basal oxygen consumption (A549 cells [9]): strongly impaired | maximal oxygen consumption (A549 cells [9]; after oligomycin and FCCP): strongly impaired | lipid peroxidation (A549 cells [10]): induced; also recorded: induces an increase | FC (log2) CIAO1 protein (A549 cells [11]): −1.179 log2 | FC (log2) COX4I1 protein (A549 cells [11]): −0.6951 log2 | FC (log2) MT-CO3 protein (A549 cells [11]): −1.538 log2 | FC (log2) MT-ND4 protein (A549 cells [11]): −1.86 log2 | FC (log2) NDUFA4 protein (A549 cells [11]): −0.5939 log2 | FC (log2) NDUFA5 protein (A549 cells [11]): −0.8033 log2 | FC (log2) NDUFA7 protein (A549 cells [11]): −1.584 log2 | FC (log2) NDUFA9 protein (A549 cells [11]): −0.5906 log2 | FC (log2) NDUFA10 protein (A549 cells [11]): −0.8723 log2 | FC (log2) NDUFA12 protein (A549 cells [11]): −0.6836 log2 | FC (log2) NDUFS1 protein (A549 cells [11]): −1.133 log2 | FC (log2) NDUFS4 protein (A549 cells [11]): −0.9309 log2 | FC (log2) NDUFS7 protein (A549 cells [11]): −0.8355 log2 | FC (log2) NDUFS8 protein (A549 cells [11]): −0.8273 log2 | FC (log2) NDUFV1 protein (A549 cells [11]): −1.064 log2 | FC (log2) NDUFV2 protein (A549 cells [11]): −0.7451 log2 | FC (log2) SDHB protein (A549 cells [11]): −1.214 log2 | cellular iron (ICP-MS) (A549 cells [12]): decrease in cellular iron | proliferation of A549 cells (A549 cells [2]): inhibited the proliferation; also recorded: impairs proliferation of tumor cells | cell proliferation (cell numbers after 72 hours), A549 (A549 lung cancer cells): did not significantly alter the growth | cell proliferation (cell numbers after 72 hours), MDA-MB-231 [13]: did not significantly alter the growth | proliferation of normal BEAS-2B cells [14]: resistant | cell death after first passage of cells (p1) (A549 cells [1]; A549, 500 μM D-cysteine, after 72 hours, following first passage): extensive cell death | concentration sufficient to induce A549 cell death (A549 cells [1]; A549 cells stably expressing Cas9, culture 2-3 weeks): 0.5 mM | caspase 3 by Western blotting (A549 cells [1]; D-cysteine-exposed cells, data not shown): No increase in caspase 3 | sensitivity of HeLa cells (HeLa cells): insensitive | adverse effect on the animals [15]: no adverse effect | antiproliferative effect, A375 (A375 melanoma cells): antiproliferative effect | antiproliferative effect, BZR [16]: antiproliferative effect | mitochondrial ROS production (A549 cells [17]): induced ROS production; also recorded: induces an increase | sensitivity of osteosarcoma cell line 143B [18]: insensitive | antiproliferative effect, H1299 [19]: antiproliferative effect | sensitivity of MPM cell line H2052/484 (MPM cell line H2052/484): insensitive

Cc1cc(=O)[nH]c(SCC(=O)c2cccc3ccccc23)n1 [HMPSNE]
cell proliferation (cell numbers after 72 hours), A549 (A549 lung cancer cells): significant impact; also recorded: potentiates the anti-proliferative effect of D-cysteine | cell proliferation (cell numbers after 72 hours), MDA-MB-231 [13]: significant impact; also recorded: potentiates the anti-proliferative effect of D-cysteine

N[C@H](CSSC[C@@H](N)C(=O)O)C(=O)O [D-cystine]
proliferation of A549 cells (A549 cells [2]): inhibited the proliferation
